Legend:
[1] = target: Human immunodeficiency virus type 1 protease (Human immunodeficiency virus 1) (UniProt Q72874); assay: The compound was evaluated for irreversible inhibition of HIV-1 protease at 20 uM
[2] = target: Human immunodeficiency virus type 1 protease (Human immunodeficiency virus 1) (UniProt Q72874); assay: The compound was evaluated for irreversible inhibition of HIV-1 protease
[3] = target: Human immunodeficiency virus type 1 protease (Human immunodeficiency virus 1) (UniProt Q72874); assay: The compound was evaluated for irreversible inhibition of HIV-1 protease at pH 6.5
[4] = target: Human immunodeficiency virus type 1 protease (Human immunodeficiency virus 1) (UniProt Q72874); assay: Maximal inactivation rate towards HIV-1 protease was evaluated
[5] = Bimolecular rate constant is the ratio of Vinact/Kinact

## COC(=O)C(NC(=O)[C@@H]1O[C@@H]1COc1ccc([N+](=O)[O-])cc1)C(C)C (some centres not stated)
[1]
  inhibition: 22%

## CC(C)C(NC(=O)OCc1ccccc1)C(=O)N[C@@H](Cc1ccccc1)[C@@H]1O[C@@H]1[C@H](Cc1ccccc1)NC(=O)C(NC(=O)OCc1ccccc1)C(C)C (some centres not stated)
[2]
  K inact: 0.075 µM

## O=[N+]([O-])c1ccc(OCC2CO2)cc1 (configuration not stated)
[2]
  K inact: 11000 µM

## CC(C)C[C@@H]1O[C@@H]1[C@H](Cc1ccccc1)NC(=O)[C@H](C)NC(=O)[C@H](Cc1ccccc1)NC(=O)OCc1ccccc1
[2]
  K inact: 20 µM

## O=C(OCC1c2ccccc2-c2ccccc21)N1CCC2OC2C1 (configuration not stated)
[2]
  K inact: 65 µM

## COC(=O)C(CC(C)C)NC(=O)[C@@H]1O[C@@H]1CCc1ccccc1 (some centres not stated)
[1]
  inhibition: 19%

## CC(C)C(NC(=O)OCc1ccccc1)C(=O)OC[C@@H]1O[C@@H]1COc1ccc([N+](=O)[O-])cc1 (some centres not stated)
[3]
  K inact: 1.8 µM
[4]
  Vinact: 0.26 min⁻¹
[1]
  inhibition: 88%
[5]
  Ratio: 140000 M⁻¹ min⁻¹

## COC(=O)C(CC(C)C)NC(=O)[C@@H]1O[C@@H]1COc1ccc([N+](=O)[O-])cc1 (some centres not stated)
[1]
  inhibition: 30%

## CC(C)C(NC(=O)OCc1ccccc1)C(=O)NC(C(=O)OC[C@@H]1O[C@@H]1COc1ccc([N+](=O)[O-])cc1)C(C)C (some centres not stated)
[1]
  inhibition: 25%
